Measured values reported in article PMC8154581, “Discovery of Novel Thiophene-arylamide Derivatives as DprE1 Inhibitors with Potent Antimycobacterial Activities” (Journal of Medicinal Chemistry, 2021).
In brackets after ≈: the same amount, converted by molar mass. Read-outs that look alike come from different tables or passages of the source.

Legend:
[1] = test system: M. tuberculosis H37Rv; assay: MIC against replicating M. tuberculosis H37Rv, microplate Alamar blue assay (MABA); type: cell-based; details: Mycobacterium tuberculosis, H37RV
[2] = test system: Vero cells; assay: Cytotoxicity assay in Vero cells (MTT); type: cell-based; details: Chlorocebus sabaeus, Vero, 48 h, read-out: IC50 (Vero)
[3] = molecular target: Mt-DprE1 (Mycobacterium tuberculosis, UniProt P9WJF1); type: biochemical, M. tuberculosis
[4] = in vitro; details: male, mouse, hepatocytes
[5] = in vitro; details: human, hepatocytes
[6] = in vitro; details: human
[7] = molecular target: hERG K+ channel (Homo sapiens, UniProt Q12809); assay: Inhibition of the hERG K+ channel, electrophysiology
[8] = test system: M. tuberculosis; set-up: method as in PMID 19299584, PMID 24500695; details: antimycobacterial activity; cited from earlier work

Chain of hERG K+ channel (Q12809 whole entry): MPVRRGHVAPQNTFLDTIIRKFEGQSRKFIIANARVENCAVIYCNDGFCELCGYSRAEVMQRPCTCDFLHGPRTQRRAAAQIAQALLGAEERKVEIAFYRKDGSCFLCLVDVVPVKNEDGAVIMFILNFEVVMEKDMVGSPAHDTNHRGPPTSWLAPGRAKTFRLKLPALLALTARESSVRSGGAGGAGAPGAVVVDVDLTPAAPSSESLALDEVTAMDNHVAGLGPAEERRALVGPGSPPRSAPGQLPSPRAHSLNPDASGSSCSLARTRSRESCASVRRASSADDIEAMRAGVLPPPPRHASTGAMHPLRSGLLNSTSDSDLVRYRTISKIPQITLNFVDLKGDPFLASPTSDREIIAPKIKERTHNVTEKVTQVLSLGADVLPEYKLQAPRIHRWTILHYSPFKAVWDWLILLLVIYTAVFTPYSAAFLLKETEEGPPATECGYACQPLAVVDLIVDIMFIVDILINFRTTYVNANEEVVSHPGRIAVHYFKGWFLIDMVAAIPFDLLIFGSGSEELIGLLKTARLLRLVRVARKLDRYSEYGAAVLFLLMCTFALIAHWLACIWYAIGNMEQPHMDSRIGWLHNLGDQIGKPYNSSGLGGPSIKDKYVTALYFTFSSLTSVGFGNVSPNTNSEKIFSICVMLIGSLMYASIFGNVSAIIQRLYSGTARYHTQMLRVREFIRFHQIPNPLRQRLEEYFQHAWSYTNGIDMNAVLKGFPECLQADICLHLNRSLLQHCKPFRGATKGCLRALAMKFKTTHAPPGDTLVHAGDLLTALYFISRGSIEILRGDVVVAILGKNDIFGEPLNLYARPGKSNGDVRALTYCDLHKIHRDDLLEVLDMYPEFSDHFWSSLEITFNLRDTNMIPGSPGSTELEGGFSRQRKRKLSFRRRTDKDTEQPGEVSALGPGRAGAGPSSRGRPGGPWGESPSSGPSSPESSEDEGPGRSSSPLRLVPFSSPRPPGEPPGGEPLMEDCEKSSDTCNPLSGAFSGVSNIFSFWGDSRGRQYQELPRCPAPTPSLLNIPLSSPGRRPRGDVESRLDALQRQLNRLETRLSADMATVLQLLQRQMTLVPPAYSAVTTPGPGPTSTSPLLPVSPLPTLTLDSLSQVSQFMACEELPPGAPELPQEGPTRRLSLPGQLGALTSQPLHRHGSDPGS
Chain of Mt-DprE1 (P9WJF1 whole entry, looked up): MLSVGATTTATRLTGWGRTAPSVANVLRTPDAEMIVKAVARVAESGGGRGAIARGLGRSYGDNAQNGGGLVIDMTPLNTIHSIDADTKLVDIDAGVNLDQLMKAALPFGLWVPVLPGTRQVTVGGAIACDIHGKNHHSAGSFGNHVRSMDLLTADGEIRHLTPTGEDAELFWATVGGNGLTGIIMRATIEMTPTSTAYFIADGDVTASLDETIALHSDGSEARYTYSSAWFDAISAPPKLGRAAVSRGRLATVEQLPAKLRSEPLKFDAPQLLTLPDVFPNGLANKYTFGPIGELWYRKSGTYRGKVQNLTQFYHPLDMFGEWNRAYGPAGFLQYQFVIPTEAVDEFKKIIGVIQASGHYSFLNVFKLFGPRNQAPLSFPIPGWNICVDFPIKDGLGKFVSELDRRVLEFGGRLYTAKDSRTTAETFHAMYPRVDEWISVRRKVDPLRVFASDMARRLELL

Work on `CCOC(=O)NC(=O)c1ccsc1NC(=O)c1ccc(C(=O)N2CCCCC2)s1` [Compound 24j, Ethyl (2-(5-(Piperidine-1-carbonyl)thiophene-2-carboxamido)thiophene-3-carbonyl)carbamate] yielded an MIC ([1]; against M. tuberculosis H37Rv, Tables 1-3, read-out: MIC) of 0.14 µg/mL (≈ 0.321 µM), an MIC ([1]; supplementary CSV, same values as Tables 1-3, read-out: Minimal inhibit concentration) of 0.14 µg/mL (≈ 0.321 µM) and an MIC ([1]; Table 4, read-out: MIC H37Rv) of 0.059 µg/mL (≈ 0.135 µM). For the same molecule, the IC50 [2] was greater than 64 µg/mL, the “IC50 DprE1” value [3] was 0.3 ± 0.1 µg/mL (≈ 0.689 µM) and the melting point was 175 to 176 °C. The half-life at 1 µM [4] was 19.3 min, the remaining at 0.5 h, 1 µM [4] was 34% and the half-life at 1 µM [5] was 72.5 min. The remaining at 0.5 h, 1 µM [5] was 75.1%, the IC50 [6] was greater than 64 µg/mL and the IC50 [7] was 28.3 µM.

In the case of `O=c1nc(N2CCN(CC3CCCCC3)CC2)sc2c([N+](=O)[O-])cc(C(F)(F)F)cc12` [PBTZ169], the MIC ([1]; Table 4, read-out: MIC H37Rv) is listed as 0.0001 µg/mL (≈ 0.000219 µM) and the MICs [8] is listed as less than 0.016 µg/mL.
